Results on one molecule are retold here after patent US20250332139A1, “PS[…] AND THEIR USE FOR TREATING […] AND NE[…] DISORDERS” (Transcend Therapeutics, Inc., priority 2021, published 2025).

What is called Ki is the dissociation constant of the complex between target and ligand, obtained from inhibition or displacement. Read a low Ki as tighter binding.

Read-outs that look alike come from different tables or passages of the source.

In assay [1] the test system is myelin basic protein (MBP) in the amygdala. The assay can be described thus: Immunohistochemistry of myelin basic protein. It counts as in vivo, rat. The following applies: 10 mg/kg IP, single dose, 24 h. The protocol: Immunohistochemistry: The in-life portion of the study was conducted at WuXi Apptec (Cranbury, NJ). Sectioning and staining of brains took place at Neuroscience Associates (NSA, Knoxville, TN). […] Brains were post-fixed in PFA before shipment to NSA for processing and staining. Hemisected brains were mounted, sectioned and stained using standard protocols with myelin-basic protein primary antibody (MBP SMI-99, 1:5000, Biolegend, San Diego, CA) and anti-mouse biotinylated secondary antibody (BA-2001, Vector Laboratories, Newark, CA). Slides were imaged using a Huron Digital Pathology TissueScope LE120 whole slide scanning system. 20× objective was used with a 0.4 μm/pixel resolution.

Assay [2] has as its target T1, dopamine transporter (DAT) (Rattus norvegicus, UniProt P23977).
T1 construct: from tissue; synaptosomes for uptake and release
The assay can be described thus: Competitive radioligand binding, [3H]WIN35428, rat brain lysates. How it is done: (§1) Radioligands used were: [^3H] Citalopram (PerkinElmer NET1039250UC); [^3H] Nisoxetine (PerkinElmer NET1084250UC); [^3H] WIN35428 (PerkinElmer NET1033250UC). […] Rat brains were dissected and tissue was homogenized in cold lysis buffer, centrifged at 100×g for 2 min and the supernatant was placed in a fresh tube. Supernatant was centrifuged at 13,000×g for 10 min at 4° C. to re-pellet the cell lysate. The pellet was resuspended in fresh wash buffer (50 mM Tris-HCl; 5 mM MgCl2; 5 mM EDTA) and centrifuged a third time. The pellet was then resuspended in wash buffer containing 10% sucrose as a cryoprotectant, divided into aliquots (0.3 mL) and stored at −80° C. A sample of the homogenate was analyzed for protein content using the SIGMA® BCA assay. On the day of the assay, the membrane preparation was thawed, and the pellet resuspended in final assay buffer. […] To each well was added 150 μL membranes, 50 μL of non-specific compound or buffer and 50 μL radioligand solution in buffer. […] Ki was subsequently calculated using the Cheng-Prusoff equation.

In assay [3] the target is T2, Human serotonin 5HT2B receptor (Homo sapiens, UniProt P41595).
T2 construct: host or cells: receptor-expressing membranes
The assay can be described thus: 5HT2B competitive radioligand binding. Particulars: ratio of Ki values. How it is done:
Human serotonin 5HT2B receptor membrane preparations were divided into aliquots. On the day of the assay, membranes were diluted at 1:200 in incubation buffer. […] To each well was added 150 μL membrane preparation, 50 μL test compound, non-specific compound, or buffer alone, as well as 50 μL radioligand. The plate was incubated at 35° C. for 90 minutes with gentle agitation. […] For each concentration of drug, non-specific binding was subtracted from total binding to give specific binding. […] Ki was subsequently calculated using the ChengPrusoff equation.

Another assay has as its system C57BL/6J mice. Particulars: MDMA 7.5 mg/kg 30 minutes prior to extinction training (Young 2015); cited from earlier work.
In a further assay the test system is Sprague Dawley rats. Particulars: cited from earlier work.
Assay [4] addresses T3, serotonin transporter (SERT) (Rattus norvegicus, UniProt P31652).
T3 construct: from tissue; synaptosomes for uptake and release
The assay can be described thus: Competitive radioligand binding, [3H]citalopram, rat brain lysates. The protocol:
as §1

Assay [5] deals with norepinephrine transporter (NET) (Rattus norvegicus, UniProt Q63380). The assay can be described thus: Competitive radioligand binding, [3H]nisoxetine, rat brain lysates. How it is done:
as §1

T2 sequence (P41595 whole entry): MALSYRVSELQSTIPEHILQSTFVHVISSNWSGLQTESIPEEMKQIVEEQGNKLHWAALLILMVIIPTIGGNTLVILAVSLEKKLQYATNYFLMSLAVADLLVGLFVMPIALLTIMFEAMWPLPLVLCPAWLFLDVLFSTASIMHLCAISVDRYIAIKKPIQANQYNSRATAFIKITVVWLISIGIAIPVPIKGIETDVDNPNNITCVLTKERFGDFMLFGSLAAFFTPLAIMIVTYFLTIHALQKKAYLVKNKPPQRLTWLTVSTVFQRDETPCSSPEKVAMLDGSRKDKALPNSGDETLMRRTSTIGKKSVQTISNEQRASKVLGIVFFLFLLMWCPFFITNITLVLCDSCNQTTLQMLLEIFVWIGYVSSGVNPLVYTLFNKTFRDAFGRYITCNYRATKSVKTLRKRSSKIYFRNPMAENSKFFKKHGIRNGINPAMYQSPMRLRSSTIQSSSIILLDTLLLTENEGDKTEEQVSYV
T3 sequence (P31652 whole entry): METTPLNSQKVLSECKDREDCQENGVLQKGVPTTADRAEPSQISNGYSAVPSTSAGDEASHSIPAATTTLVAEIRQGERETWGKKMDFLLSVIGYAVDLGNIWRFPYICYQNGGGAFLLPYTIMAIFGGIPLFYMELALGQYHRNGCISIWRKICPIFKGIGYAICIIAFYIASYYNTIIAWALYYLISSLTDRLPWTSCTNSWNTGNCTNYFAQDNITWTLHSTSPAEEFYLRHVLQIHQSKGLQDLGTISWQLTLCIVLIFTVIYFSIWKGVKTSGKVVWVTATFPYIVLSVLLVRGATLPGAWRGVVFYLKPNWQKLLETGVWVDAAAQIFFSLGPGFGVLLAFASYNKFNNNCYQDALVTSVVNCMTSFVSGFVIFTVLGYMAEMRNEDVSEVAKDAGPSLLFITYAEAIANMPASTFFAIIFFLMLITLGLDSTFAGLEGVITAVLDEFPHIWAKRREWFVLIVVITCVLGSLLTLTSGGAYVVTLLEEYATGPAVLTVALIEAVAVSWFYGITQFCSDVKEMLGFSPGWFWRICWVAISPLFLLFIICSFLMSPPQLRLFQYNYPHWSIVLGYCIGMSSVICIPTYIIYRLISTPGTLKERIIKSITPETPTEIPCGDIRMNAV
T1 sequence (P23977 whole entry): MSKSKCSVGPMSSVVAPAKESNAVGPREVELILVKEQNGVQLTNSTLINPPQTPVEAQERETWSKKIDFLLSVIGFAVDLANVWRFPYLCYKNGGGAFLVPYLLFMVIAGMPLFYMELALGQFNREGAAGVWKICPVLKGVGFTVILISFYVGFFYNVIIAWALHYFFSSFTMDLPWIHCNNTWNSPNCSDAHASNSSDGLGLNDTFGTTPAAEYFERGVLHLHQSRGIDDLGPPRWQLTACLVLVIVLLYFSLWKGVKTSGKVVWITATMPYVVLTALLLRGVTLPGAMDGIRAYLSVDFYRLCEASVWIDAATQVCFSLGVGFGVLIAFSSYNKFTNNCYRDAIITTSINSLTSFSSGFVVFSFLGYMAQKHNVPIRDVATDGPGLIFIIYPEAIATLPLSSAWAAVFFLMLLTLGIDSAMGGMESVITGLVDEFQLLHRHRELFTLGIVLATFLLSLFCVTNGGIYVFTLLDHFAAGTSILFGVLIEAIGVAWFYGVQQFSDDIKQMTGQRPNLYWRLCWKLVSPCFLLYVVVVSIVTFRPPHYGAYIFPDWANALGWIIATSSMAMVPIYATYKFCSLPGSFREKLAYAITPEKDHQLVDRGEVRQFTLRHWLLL
norepinephrine transporter (NET), sequence (Q63380 1-617): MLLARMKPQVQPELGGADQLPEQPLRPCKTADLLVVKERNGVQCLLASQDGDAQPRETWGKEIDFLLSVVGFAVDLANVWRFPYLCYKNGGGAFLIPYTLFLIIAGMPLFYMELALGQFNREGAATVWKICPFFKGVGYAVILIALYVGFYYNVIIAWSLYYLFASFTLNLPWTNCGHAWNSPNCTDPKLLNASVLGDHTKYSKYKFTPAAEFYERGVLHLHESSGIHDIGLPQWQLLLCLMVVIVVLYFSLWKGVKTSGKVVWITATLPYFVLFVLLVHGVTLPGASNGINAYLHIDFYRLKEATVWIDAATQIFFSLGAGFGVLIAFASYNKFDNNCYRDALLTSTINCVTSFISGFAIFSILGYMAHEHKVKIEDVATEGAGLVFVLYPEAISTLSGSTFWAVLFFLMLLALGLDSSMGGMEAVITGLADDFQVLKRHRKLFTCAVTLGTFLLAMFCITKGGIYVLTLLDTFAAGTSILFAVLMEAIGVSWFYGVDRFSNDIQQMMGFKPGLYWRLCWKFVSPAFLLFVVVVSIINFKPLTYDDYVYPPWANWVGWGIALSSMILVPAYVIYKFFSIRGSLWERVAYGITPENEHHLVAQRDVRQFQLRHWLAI

As to `CNC(C)Cc1ccc2c(c1)OCO2` (racemic) [MDMA, 3,4-Methylenedioxymethamphetamine], in assay [1], the “MBP level in basolateral and central nuclei of the amygdala vs vehicle” value is listed as “significant reduction in MBP”. Also, the values for the Ki in assay [2], in assay [4] and in assay [5] were 5110 nM, 2620 nM and 790 nM, respectively. Also, the “times greater affinity for the 5HT2B receptor compared with methylone” value in assay [3] stood at 7.5 times. The “reduced freezing (extinction recall) vs saline” value in the assay on C57BL/6J mice is 35%. In addition, the reduction in immobility in the assay on Sprague Dawley rats (MDMA 5 mg/kg, Flinders Sensitive Line rats (Majumder 2011)) is 45%; in the assay with Sprague Dawley rats (MDMA 5 mg/kg, Sprague Dawley rats (Majumder 2011)), 45%; in the assay with Sprague Dawley rats (MDMA 10 mg/kg, Flinders Sensitive Line rats (Majumder 2011)) it was 93%; in the assay on Sprague Dawley rats (MDMA 10 mg/kg, Sprague Dawley rats (Majumder 2011)), 78%.
